Measured values as given in US9422338B2 (EpoDose LLC, priority 2011, dated 2016).
Bridges are numbered along the chain shown (N, C = ends). Roman numbers before positions name the chains, in order. [ ]: non-standard residue; d: D form. ξ: configuration not given here. 1Nal = N[C@@H](Cc1cccc2ccccc12)C(=O)O; ξK = NCCCCC(N)C(=O)O; Ava = NCCCCC(=O)O

Molecular target: T1, EPOR (erythropoietin receptor), human recombinant, NSO cells (Homo sapiens, UniProt P19235)
T1 construct: host or cells: NSO cells
T1 sequence (P19235 25-250 limits assumed): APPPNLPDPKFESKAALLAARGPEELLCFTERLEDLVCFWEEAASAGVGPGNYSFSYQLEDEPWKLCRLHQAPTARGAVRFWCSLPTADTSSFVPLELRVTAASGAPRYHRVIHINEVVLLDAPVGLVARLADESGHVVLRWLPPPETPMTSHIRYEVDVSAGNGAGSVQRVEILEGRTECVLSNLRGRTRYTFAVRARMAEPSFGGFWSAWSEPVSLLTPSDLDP
Test: EPOR radioligand binding assay ([125I] Erythropoietin competition)
Conditions: for Ki (AC-0005-002)/Ki: Ki relative to that of AC-0005-002; for Ki: Example 2, mimetics varied in loop, mid and C-end
Description: IC50 values were determined by a non-linear, least squares regression analysis using MATHIQ™ (computer software for integrating mathematical functions into new or existing software). […] Where presented, the Hill coefficient (nH), defining the slope of the competitive binding curve, was calculated using MATHIQ™.

Row | Compound | Ki (AC-0005-002)/Ki (Example 4, sixth table) | Ki/Ki(EPO) (Example 4, sixth table, Ki relative to that of EPO) | Ki | IC50 (Example 4, sixth table) | Ki (AC-0005-002)/Ki (Example 4, first table)
1 | CCN[C@@H](CC(N)=O)C(=O)N[C@@H](Cc1ccc(O)cc1)C(=O)N[C@@H](CC(C)C)C(=O)NC1CCOCC(C(=O)N[C@@H](CCCCNC(=N)N)C(=O)N2CCC[C@H]2C(=O)NC(CCCC(=O)NCCCCC(NC(=O)[C@@H]2CCCN2C(=O)[C@H](CCCCNC(=N)N)NC(=O)C2COCCC(NC(=O)[C@H](CC(C)C)NC(=O)[C@H](Cc3ccc(O)cc3)NC(=O)[C@H](CC(N)=O)NC(C)=O)C(=O)N[C@@H](CCCNC(=N)N)C(=O)N[C@@H](CCSC)C(=O)N3CCC[C@H]3C(=O)N[C@@H](Cc3ccc4ccccc4c3)C(=O)N[C@@H](C(C)C)C(=O)N2)C(=O)N[C@@H](CCCNC(=N)N)C(N)=O)C(=O)N[C@@H](CCCNC(=N)N)C(N)=O)NC(=O)[C@H](C(C)C)NC(=O)[C@H](Cc2ccc3ccccc3c2)NC(=O)[C@@H]2CCCN2C(=O)[C@H](CCSC)NC(=O)[C@H](CCCNC(=N)N)NC1=O (some centres unmarked) [AC-0005-060] | 195 | 330 |  |  | 
2 | CSCC[C@@H]1NC(=O)[C@H](CCCNC(=N)N)NC(=O)C(NC(=O)[C@H](CC(C)C)NC(=O)[C@H](Cc2ccc(O)cc2)NC(=O)[C@H](CC(N)=O)NC(C)=O)CCOCC(C(=O)N[C@@H](CCCCN)C(=O)N2CCC[C@H]2C(=O)NC(CCCCNC(=O)CCCC(NC(=O)[C@@H]2CCCN2C(=O)[C@H](CCCCN)NC(=O)C2COCCC(NC(=O)[C@H](CC(C)C)NC(=O)[C@H](Cc3ccc(O)cc3)NC(=O)[C@H](CC(N)=O)NC(C)=O)C(=O)N[C@@H](CCCNC(=N)N)C(=O)N[C@@H](CCSC)C(=O)N3CCC[C@H]3C(=O)N[C@@H](Cc3ccc4ccccc4c3)C(=O)N[C@@H](C(C)C)C(=O)N2)C(=O)N[C@@H](CCCNC(=N)N)C(N)=O)C(=O)N[C@@H](CCCNC(=N)N)C(N)=O)NC(=O)[C@H](C(C)C)NC(=O)[C@H](Cc2ccc3ccccc3c2)NC(=O)[C@@H]2CCCN2C1=O (some centres unmarked) [AC-0005-061] |  |  | 27.7 nM | 58.5 nM | 
3 | I: Ac-GGLYACHMGPIT[1Nal]VCQPQGG[ξK]-NH2 / II: Ac-GGNYLCHMGPIT[1Nal]VCQPQGG[Ava] (disulfide I:6-I:15, II:6-II:15; amide I:21-II:C) [AC-0005-002] |  |  |  |  | 1

Second part, the compound after the results:

Row | Ki (AC-0005-002)/Ki (Example 4, sixth table) | Ki/Ki(EPO) (Example 4, sixth table, Ki relative to that of EPO) | Ki | IC50 (Example 4, sixth table) | Ki (AC-0005-002)/Ki (Example 4, first table) | Compound
4 |  |  | 1.2 nM | 2.4 nM |  | CSCC[C@@H]1NC(=O)[C@H](CCCNC(=N)N)NC(=O)C(NC(=O)[C@H](CC(C)C)NC(=O)[C@H](Cc2ccc(O)cc2)NC(=O)[C@H](CC(N)=O)NC(C)=O)CCOCC(C(=O)N[C@@H](CCCCN)C(=O)N2CCC[C@H]2C(=O)NC(CCCCNC(=O)CCCC(NC(=O)[C@@H]2CCCN2C(=O)[C@H](CCCCN)NC(=O)C2COCCC(NC(=O)[C@H](CC(C)C)NC(=O)[C@H](Cc3ccc(O)cc3)NC(=O)[C@H](CC(N)=O)NC(C)=O)C(=O)N[C@@H](CCCNC(=N)N)C(=O)N[C@@H](CCSC)C(=O)N3CCC[C@H]3C(=O)N[C@@H](Cc3ccc4ccccc4c3)C(=O)N[C@@H](C(C)C)C(=O)N2)C(=O)NCCC(=O)N[C@@H](CCCNC(=N)N)C(N)=O)C(=O)NCCC(=O)N[C@@H](CCCNC(=N)N)C(N)=O)NC(=O)[C@H](C(C)C)NC(=O)[C@H](Cc2ccc3ccccc3c2)NC(=O)[C@@H]2CCCN2C1=O (some centres unmarked) [AC-0005-062]
5 |  |  | 1 nM | 2.2 nM |  | CSCC[C@@H]1NC(=O)[C@H](CCCNC(=N)N)NC(=O)C(NC(=O)[C@H](CC(C)C)NC(=O)[C@H](Cc2ccc(O)cc2)NC(=O)[C@H](CC(N)=O)NC(C)=O)CCOCC(C(=O)N[C@@H](CCCCNC(=N)N)C(=O)N2CCC[C@H]2C(=O)NC(CCCCNC(=O)CCCC(NC(=O)[C@@H]2CCCN2C(=O)[C@H](CCCCNC(=N)N)NC(=O)C2COCCC(NC(=O)[C@H](CC(C)C)NC(=O)[C@H](Cc3ccc(O)cc3)NC(=O)[C@H](CC(N)=O)NC(C)=O)C(=O)N[C@@H](CCCNC(=N)N)C(=O)N[C@@H](CCSC)C(=O)N3CCC[C@H]3C(=O)N[C@@H](Cc3ccc4ccccc4c3)C(=O)N[C@@H](C(C)C)C(=O)N2)C(=O)NCCC(=O)N[C@@H](CCCNC(=N)N)C(N)=O)C(=O)NCCC(=O)N[C@@H](CCCNC(=N)N)C(N)=O)NC(=O)[C@H](C(C)C)NC(=O)[C@H](Cc2ccc3ccccc3c2)NC(=O)[C@@H]2CCCN2C1=O (some centres unmarked) [AC-0005-063]
6 |  |  | 0.6 nM | 1.3 nM |  | CSCC[C@@H]1NC(=O)[C@H](CCCNC(=N)N)NC(=O)C(NC(=O)[C@H](CC(C)C)NC(=O)[C@H](Cc2ccc(O)cc2)NC(=O)[C@H](CC(N)=O)NC(C)=O)CCOCC(C(=O)N[C@@H](CCCCNC(=N)N)C(=O)N2CCC[C@H]2C(=O)NCCCOCCC(OCCCNC(=O)[C@@H]2CCCN2C(=O)[C@H](CCCCNC(=N)N)NC(=O)C2COCCC(NC(=O)[C@H](CC(C)C)NC(=O)[C@H](Cc3ccc(O)cc3)NC(=O)[C@H](CC(N)=O)NC(C)=O)C(=O)N[C@@H](CCCNC(=N)N)C(=O)N[C@@H](CCSC)C(=O)N3CCC[C@H]3C(=O)N[C@@H](Cc3ccc4ccccc4c3)C(=O)N[C@@H](C(C)C)C(=O)N2)C(N)=O)NC(=O)[C@H](C(C)C)NC(=O)[C@H](Cc2ccc3ccccc3c2)NC(=O)[C@@H]2CCCN2C1=O (some centres unmarked) [AC-0005-064]
